Laboratory results taken from patent publication US9399636B2, “Substituted dipyridylamines and uses thereof” (Genentech, Inc., priority 2012, dated 2016).
pKi: −log10 of the molar value.

Target: T1, DLK (Homo sapiens, UniProt Q12852)
T1 construct: N-terminally GST-tagged DLK (catalytic domain amino acid 1-520) (Carna Bioscience); GST (N); purchased Carna Bioscience
T1 sequence (Q12852 1-520): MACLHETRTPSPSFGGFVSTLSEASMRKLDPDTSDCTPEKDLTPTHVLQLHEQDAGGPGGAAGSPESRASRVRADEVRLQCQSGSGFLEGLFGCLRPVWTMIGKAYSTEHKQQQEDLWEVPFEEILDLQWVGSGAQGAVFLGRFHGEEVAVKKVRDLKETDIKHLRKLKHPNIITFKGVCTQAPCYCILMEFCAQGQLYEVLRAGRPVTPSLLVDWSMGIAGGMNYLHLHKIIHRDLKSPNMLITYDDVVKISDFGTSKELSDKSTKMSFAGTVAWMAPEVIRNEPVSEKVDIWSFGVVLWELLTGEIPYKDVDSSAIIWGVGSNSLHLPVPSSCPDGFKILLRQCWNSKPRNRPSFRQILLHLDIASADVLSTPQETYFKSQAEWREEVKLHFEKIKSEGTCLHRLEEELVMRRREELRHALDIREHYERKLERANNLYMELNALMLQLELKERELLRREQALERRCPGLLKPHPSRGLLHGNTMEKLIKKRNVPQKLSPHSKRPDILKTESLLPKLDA
Experiment: DLK TR-FRET assay
Assay type: biochemical
Conditions: 5 nM GST-tagged DLK (catalytic domain amino acid 1-520), 40 nM HIS-tagged MKK4 K131M substrate, 30 μM ATP, 60 minutes
Procedure, shortened: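 Phosphorylation of HIS-tagged MKK4 K131M (40 nM) by GST-DLK aa 1-520 (5 nM) at 30 μM ATP, pH 7.5, run 60 min at ambient temperature. Compound series started at 20 uM, diluted 1:3. Phospho-MKK4 detected by TR-FRET (Eu cryptate/D2 antibodies, 3 h, EDTA-containing buffer).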

Q: With `N#Cc1ccnc(Nc2cc(C3CCOCC3)cc(N3CCC(F)(F)C3)n2)c1` [Example 130, 2-[6-(3,3-Difluoro-pyrrolidin-1-yl)-4-(tetrahydro-pyran-4-yl)-pyridin-2-ylamino]-isonicotinonitrile] as the compound, how does the pKi read?
A: 9.06

Q: With `CC1CCCN1c1cc(C2CCN(S(C)(=O)=O)C2)cc(Nc2cc(C(F)(F)F)ccn2)n1` (centres unmarked) [Example 132, [4-(1-Methanesulfonyl-pyrrolidin-3-yl)-6-(2-methyl-pyrrolidin-1-yl)-pyridin-2-yl]-(4-trifluoromethyl-pyridin-2-yl)-amine] as the compound, how does the pKi read?
A: 8.67

Q: With `CC1CCCN1c1cc(C2CCN(C(=O)c3cn(C)cn3)C2)cc(Nc2cc(C(F)(F)F)ccn2)n1` (centres unmarked) [Example 133, (1-Methyl-1H-imidazol-4-yl)-{3-[2-(2-methyl-pyrrolidin-1-yl)-6-(4-trifluoromethyl-pyridin-2-ylamino)-pyridin-4-yl]-pyrrolidin-1-yl}-methanone] as the compound, how does the pKi read?
A: 9.18

Q: With `CC(=O)N1CCC(c2cc(Nc3cc(C)ccn3)nc(-c3cnn(C)c3)c2)CC1` [Example 134, 1-[2′-(1-Methyl-1H-pyrazol-4-yl)-6′-(4-methyl-pyridin-2-ylamino)-3,4,5,6-tetrahydro-2H-[4,4′]bipyridinyl-1-yl]-ethanone] as the compound, how does the pKi read?
A: 7.52

Q: How did the pKi turn out when `Cc1ccnc(Nc2cc(C3CCN(C4COC4)CC3)cc(N3CCC[C@H]3C)n2)c1` [Example 135, (4-Methyl-pyridin-2-yl)-[6-((R)-2-methyl-pyrrolidin-1-yl)-1′-oxetan-3-yl-1′,2′,3′,4′,5′,6′-hexahydro-[4,4′]bipyridinyl-2-yl]-amine] was run?
A: 7.68

Q: With `Cc1ccnc(Nc2cc(C3CCN(S(C)(=O)=O)CC3)cc(N3CCC[C@H]3C)n2)c1` [Example 136, [1′-Methanesulfonyl-6-((R)-2-methyl-pyrrolidin-1-yl)-1′,2′,3′,4′,5′,6′-hexahydro-[4,4′]bipyridinyl-2-yl]-(4-methyl-pyridin-2-yl)-amine] as the compound, how does the pKi read?
A: 7.60

Q: `C[C@@H]1CCCN1c1cc(C2CCN(CCF)CC2)cc(Nc2cc(C(F)(F)F)ccn2)n1` [Example 137, [1′-(2-Fluoro-ethyl)-6-((R)-2-methyl-pyrrolidin-1-yl)-1′,2′,3′,4′,5′,6′-hexahydro-[4,4′]bipyridinyl-2-yl]-(4-trifluoromethyl-pyridin-2-yl)-amine] was tested. Which pKi did it give?
A: 9.77

Q: `CN1CCCC(c2cc(Nc3cc(C(F)(F)F)ccn3)nc(N3CCC(F)(F)C3)c2)C1` (centres unmarked) [Example 138, [6′-(3,3-Difluoro-pyrrolidin-1-yl)-1-methyl-1,2,3,4,5,6-hexahydro-[3,4′]bipyridinyl-2′-yl]-(4-trifluoromethyl-pyridin-2-yl)-amine] was tested. Which pKi did it give?
A: 9.77

Q: With `C[C@@H]1CCCN1c1cc(C2CCN(S(C)(=O)=O)CC2)cc(Nc2cc(C(F)(F)F)ccn2)n1` [Example 139, [1′-Methanesulfonyl-6-((R)-2-methyl-pyrrolidin-1-yl)-1′,2′,3′,4′,5′,6′-hexahydro-[4,4′]bipyridinyl-2-yl]-(4-trifluoromethyl-pyridin-2-yl)-amine] as the compound, how does the pKi read?
A: 8.18

Q: With `C[C@@H]1CCCN1c1cc(C2CCN(CCO)CC2)cc(Nc2cc(C(F)(F)F)ccn2)n1` [Example 140, 2-[6′-((R)-2-Methyl-pyrrolidin-1-yl)-2′-(4-trifluoromethyl-pyridin-2-ylamino)-3,4,5,6-tetrahydro-2H-[4,4′]bipyridinyl-1-yl]-ethanol] as the compound, how does the pKi read?
A: 9.77

Q: With `CC(=O)N1CCC(c2cc(Nc3cc(C(F)(F)F)ccn3)nc(N3CCC[C@H]3C)c2)CC1` [Example 141, 1-[2′-((R)-2-Methyl-pyrrolidin-1-yl)-6′-(4-trifluoromethyl-pyridin-2-ylamino)-3,4,5,6-tetrahydro-2H-[4,4′]bipyridinyl-1-yl]-ethanone] as the compound, how does the pKi read?
A: 8.70

Q: How did the pKi turn out when `CC(=O)N1CCC(c2cc(Nc3cc(C4CC4)ccn3)nc(N3CCC[C@H]3C)c2)CC1` [Example 142, 1-[6′-(4-Cyclopropyl-pyridin-2-ylamino)-2′-((R)-2-methyl-pyrrolidin-1-yl)-3,4,5,6-tetrahydro-2H-[4,4′]bipyridinyl-1-yl]-ethanone] was run?
A: 7.66

Q: With `CC(=O)N1CCC(c2cc(Nc3cc(C(F)(F)F)ccn3)nc(N3CCC(F)(F)C3)c2)CC1` [Example 143, 1-[2′-(3,3-Difluoro-pyrrolidin-1-yl)-6′-(4-trifluoromethyl-pyridin-2-ylamino)-3,4,5,6-tetrahydro-2H-[4,4′]bipyridinyl-1-yl]-ethanone] as the compound, how does the pKi read?
A: 8.92

Q: How did the pKi turn out when `Cc1ccnc(Nc2cc(C3CCNCC3)cc(N(C)CCO)n2)c1` [Example 144, 2-{Methyl-[6-(4-methyl-pyridin-2-ylamino)-1′,2′,3′,4′,5′,6′-hexahydro-[4,4′]bipyridinyl-2-yl]-amino}-ethanol] was run?
A: 7.21

Q: With `Cc1ccc(Nc2cc(C3CCN(C(=O)C4CCCCC4)CC3)ccn2)nc1` [Example 145, cyclohexyl(4-(2-((5-methylpyridin-2-yl)amino)pyridin-4-yl)piperidin-1-yl)methanone] as the compound, how does the pKi read?
A: 5.44

Q: `O=C([C@@H]1CCCCN1)N1CCC(c2ccnc(Nc3ccccn3)c2)CC1` [Example 146, (S)-piperidin-2-yl(4-(2-(pyridin-2-ylamino)pyridin-4-yl)piperidin-1-yl)methanone] was tested. Which pKi did it give?
A: 5.68

Q: `Cc1ccnc(Nc2cc(C3CCN(C(=O)[C@@H]4CCCCN4)CC3)ccn2)c1` [Example 147, (S)-(4-(2-((4-methylpyridin-2-yl)amino)pyridin-4-yl)piperidin-1-yl)(piperidin-2-yl)methanone] was tested. Which pKi did it give?
A: 5.92
